From patent publication US11091497B2, “Pyrano[3,4-b]pyrazine kappa opioid receptor ligands for treating addiction, pruritus, pain, and inflammation” (The Rockefeller University, priority 2017, dated 2021) come the findings set out here.

The target in experiment [1] is T1, human kappa opioid receptors (Homo sapiens, UniProt P41145).
T1 construct: expressed in transfected cells; host or cells: U2OS
The experiment can be described thus: [35S]GTPγS stimulation, membranes from U2OS cells. Type of experiment: biochemical. To be noted: for Emax: read-out: GTPγS stimulation % efficacy. As for the experimental part:
Membranes from cells stably expressing kappa, mu or delta opioid receptor constructs (PathHunter U2OS hOPRK1, CHO-K1 rOPRM1 and CHO-K1 OPRD1 β-arrestin cell line, DiscoverX, Fremont, Calif., USA) were used. Cells were scraped from tissue culture plates, homogenized with a tissue tearor homogenizer in membrane buffer (10 mM Tris, 100 mM NaCl, and 1 mM EDTA; pH 7.4), and centrifuged at 20,000 g for 30 minutes at 4° C. and frozen at −80° C. until use. Prior to use, the pellets were resuspended in binding buffer (50 mm Tris, 100 mm NaCl, pH 7.4), homogenized with a dounce homogenizer and […] incubated with 1.0 nM of the appropriate tritiated ligand ([^3H]U69,593, [^3H]DAMGO or [^3H]DPDPE for kappa, mu or delta binding, respectively) and the appropriate concentration of compound for 60 minutes at 30° C. Membranes with bound tritiated ligand were collected on Whatman GF/B filter paper (Brandel, Gaithersburg, Md., USA) utilizing a Brandel harvester. Bound tritiated ligand was quantified using a TriCarb-2900TR scintillation counter (Packard, Downers Grove, Ill., USA) following addition of 4 ml ReadySafe scintillation fluid (Beckman Coulter, Indianapolis, Ind., USA). Compiled data for each compound was normalized to the maximal binding in the absence of compound, with non-specific binding subtracted. Curve fitting was done in Microcal Origin 17.0 software using logistic sigmoidal fit, to determine IC50. GTPgammaS Membranes from U2OS cells stably expressing human kappa opioid receptors were used. Cells were scraped from tissue culture plates, homogenized with a tissue tearor homogenizer in membrane buffer (10 mM Tris, 100 mM NaCl, and 1 mM EDTA; pH 7.4), and centrifuged at 20,000 g for 30 minutes at 4° C. and frozen at −80° C. until use. Prior to use, the pellets were resuspended in assay buffer (50 mm Tris, 100 mm NaCl, 5 mM MgCl2, and 1 mM EDTA; pH 7.4) and homogenized with a dounce homogenizer and 50 μg incubated with 0.1 nM [35 S]GTPγS, 10 nM GDP, and the appropriate concentration of agonist for 20 minutes at 30° C. To test inhibition, all samples were incubated with 100 nM U69,593 as well as the appropriate concentration of compound. Membranes with bound [35 S]GTPγS were collected on Whatman GF/B filter paper (Brandel, Gaithersburg, Md., USA) utilizing a Brandel harvester. Bound [35 S]GTPγS was quantified using a TriCarb-2900TR scintillation counter (Packard, Downers Grove, Ill., USA) following addition of 4 mL ReadySafe scintillation fluid (Beckman Coulter, Indianapolis, Ind., USA). […] For each compound, curve fitting was done in Microcal Origin 17.0 software using logistic sigmoidal fit, to determine EC50 and maximal percent stimulation, which in turn was normalized to the maximal percent stimulation of the test full agonist compound U69,593 to determine % efficacy. β2-Arrestin Experiments were conducted using the PathHunter Detection Kit obtained from DiscoverX. Cells stably expressing kappa, mu or delta opioid receptor constructs (PathHunter U2OS hOPRK1, CHO-K1 rOPRM1 and CHO-K1 OPRD1 β-arrestin cell line, DiscoverX, Fremont, Calif., USA) were plated in 96- or 384-well plates. Cells were stimulated with the compounds for 90 minutes at 37° C. To test inhibition, all samples were incubated with 100 nM U69,593 as well as the appropriate concentration of compound. Cells were then incubated for 60 minutes in the presence of galoctosidase substrate, yielding chemiluminescent product. Chemiluminescence was measured using a Synergy Neo microplate reader (BioTek, Winooski, Vt., USA). Antagonism assays were done in the same manner, in the presence of 300 nM U69,593, 1 μM DAMGO or 1 μM DPDPE for KOP-R, MOP-R or DOP-R assays, respectively.
(In general: Binding of GTPγS marks nucleotide exchange on a G protein.)

Experiment [2] concerns the target T2, kappa opioid receptor (PathHunter U2OS hOPRK1 β-arrestin cell line) (Homo sapiens, UniProt P41145).
T2 construct: host or cells: U2OS (PathHunter U2OS hOPRK1 β-arrestin cell line)
Briefly: β-arrestin coupling (PathHunter Detection Kit). Format: cell-based. To be noted: for Emax at 10 µM: U2OS. As for the experimental part:
(§1) Membranes from cells stably expressing kappa, mu or delta opioid receptor constructs (PathHunter U2OS hOPRK1, CHO-K1 rOPRM1 and CHO-K1 OPRD1 β-arrestin cell line, DiscoverX, Fremont, Calif., USA) were used. Cells were scraped from tissue culture plates, homogenized with a tissue tearor homogenizer in membrane buffer (10 mM Tris, 100 mM NaCl, and 1 mM EDTA; pH 7.4), and centrifuged at 20,000 g for 30 minutes at 4° C. and frozen at −80° C. until use. Prior to use, the pellets were resuspended in binding buffer (50 mm Tris, 100 mm NaCl, pH 7.4), homogenized with a dounce homogenizer and […] incubated with 1.0 nM of the appropriate tritiated ligand ([^3H]U69,593, [^3H]DAMGO or [^3H]DPDPE for kappa, mu or delta binding, respectively) and the appropriate concentration of compound for 60 minutes at 30° C. Membranes with bound tritiated ligand were collected on Whatman GF/B filter paper (Brandel, Gaithersburg, Md., USA) utilizing a Brandel harvester. Bound tritiated ligand was quantified using a TriCarb-2900TR scintillation counter (Packard, Downers Grove, Ill., USA) following addition of 4 ml ReadySafe scintillation fluid (Beckman Coulter, Indianapolis, Ind., USA). Compiled data for each compound was normalized to the maximal binding in the absence of compound, with non-specific binding subtracted. Curve fitting was done in Microcal Origin 17.0 software using logistic sigmoidal fit, to determine IC50. GTPgammaS Membranes from U2OS cells stably expressing human kappa opioid receptors were used. Cells were scraped from tissue culture plates, homogenized with a tissue tearor homogenizer in membrane buffer (10 mM Tris, 100 mM NaCl, and 1 mM EDTA; pH 7.4), and centrifuged at 20,000 g for 30 minutes at 4° C. and frozen at −80° C. until use. Prior to use, the pellets were resuspended in assay buffer (50 mm Tris, 100 mm NaCl, 5 mM MgCl2, and 1 mM EDTA; pH 7.4) and homogenized with a dounce homogenizer and 50 μg incubated with 0.1 nM [35 S]GTPγS, 10 nM GDP, and the appropriate concentration of agonist for 20 minutes at 30° C. To test inhibition, all samples were incubated with 100 nM U69,593 as well as the appropriate concentration of compound. Membranes with bound [35 S]GTPγS were collected on Whatman GF/B filter paper (Brandel, Gaithersburg, Md., USA) utilizing a Brandel harvester. Bound [35 S]GTPγS was quantified using a TriCarb-2900TR scintillation counter (Packard, Downers Grove, Ill., USA) following addition of 4 mL ReadySafe scintillation fluid (Beckman Coulter, Indianapolis, Ind., USA). […] NA indicates not applicable. For each compound, curve fitting was done in Microcal Origin 17.0 software using logistic sigmoidal fit, to determine EC50 and maximal percent stimulation, which in turn was normalized to the maximal percent stimulation of the test full agonist compound U69,593 to determine % efficacy. β2-Arrestin Experiments were conducted using the PathHunter Detection Kit obtained from DiscoverX. Cells stably expressing kappa, mu or delta opioid receptor constructs (PathHunter U2OS hOPRK1, CHO-K1 rOPRM1 and CHO-K1 OPRD1 β-arrestin cell line, DiscoverX, Fremont, Calif., USA) were plated in 96- or 384-well plates. Cells were stimulated with the compounds for 90 minutes at 37° C. To test inhibition, all samples were incubated with 100 nM U69,593 as well as the appropriate concentration of compound. Cells were then incubated for 60 minutes in the presence of galoctosidase substrate, yielding chemiluminescent product. Chemiluminescence was measured using a Synergy Neo microplate reader (BioTek, Winooski, Vt., USA). Antagonism assays were done in the same manner, in the presence of 300 nM U69,593, 1 μM DAMGO or 1 μM DPDPE for KOP-R, MOP-R or DOP-R assays, respectively. […] NA indicates not applicable. […]

The target in experiment [3] is T3, kappa opioid receptor (PathHunter U2OS hOPRK1 membranes) (Homo sapiens, UniProt P41145).
T3 construct: host or cells: U2OS (PathHunter U2OS hOPRK1 β-arrestin cell line)
T3 sequence (P41145 whole entry): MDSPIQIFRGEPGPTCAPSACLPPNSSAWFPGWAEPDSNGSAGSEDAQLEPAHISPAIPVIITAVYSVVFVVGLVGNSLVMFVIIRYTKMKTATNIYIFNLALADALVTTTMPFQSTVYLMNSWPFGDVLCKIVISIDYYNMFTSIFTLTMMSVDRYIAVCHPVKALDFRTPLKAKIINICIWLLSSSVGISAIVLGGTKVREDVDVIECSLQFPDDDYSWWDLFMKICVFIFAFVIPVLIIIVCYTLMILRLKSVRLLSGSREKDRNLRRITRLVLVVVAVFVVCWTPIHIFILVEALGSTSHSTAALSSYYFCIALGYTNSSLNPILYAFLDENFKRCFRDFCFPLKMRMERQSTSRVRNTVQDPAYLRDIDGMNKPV
The experiment can be described thus: Tritiated U69,593 binding for KOP-R membranes. As for the experimental part:
Tritiated U69,593 binding for KOP-R membranes; tritiated DAMGO binding for MOP-R membranes; and tritiated DPDPE binding for DOP-R membranes:
as §1

[4] abbreviates: read-out: β-arrestin coupling % efficacy at 10 μM.
[5] abbreviates: 1.0 nM [3H]U69,593, 60 minutes at 30° C., read-out: Binding IC50.

The structures appear in SMILES notation. Where two headings read alike, the source gives them in different places.

T2 sequence (P41145 whole entry): as above
T1 sequence (P41145 whole entry): as above

Usually EC50 stands for the midpoint of the concentration-response curve. For orientation: IC50 means the midpoint of a concentration-inhibition curve. Take `Cc1ccc(CC(=O)N2CCN[C@@H]3COC[C@H](N4CCCC4)[C@H]32)cc1Cl` (racemic) [Example 5A57]: in experiment [1], the EC50 came to 62 nM and the Emax came to 98%. Also, in experiment [2] (setting [4]), the Emax at 10 µM turned out to be 20%. Moreover, the IC50 in experiment [3] turned out to be 42 nM.
As to `Cc1ccc(CC(=O)N2CCN[C@@H]3COC[C@H](N4CCCC4)[C@H]32)cc1C(F)(F)F` (racemic) [Example 5A47], in experiment [1], the EC50 turned out to be 9 nM and the Emax amounted to 84%. Further, in experiment [2], the EC50 is 4.9 µM. The Emax at 10 µM in experiment [2] (read-out: β-arrestin coupling % efficacy) stood at 78%. Besides, the IC50 in experiment [3] is 31 nM.
`O=C(Cc1cccc(Cl)c1)N1CCN[C@H]2COC[C@@H](N3CCCC3)[C@@H]21` (single isomer, unassigned) [Example 5A24B]: in experiment [1], the EC50 came to 1370 nM and the Emax came out at 102%. Also, the Emax at 10 µM in experiment [2] (setting [4]) was determined as 0%. In addition, the IC50 in experiment [3] (setting [5]) was determined as 1130 nM.
For `CS(=O)(=O)N1CCN(C(=O)Cc2ccc(Cl)c(Cl)c2)[C@H]2[C@H](N3CCCC3)COC[C@@H]21` (single isomer, unassigned) [Example 5A44B], in experiment [1], the EC50 was 4.6 nM and the Emax worked out at 105%. For the same molecule, the Emax at 10 µM in experiment [2] (setting [4]) was 70%. Also, the IC50 in experiment [3] was found to be 18 nM.
`O=C(Cc1cccc(Cl)c1)N1CCN[C@@H]2COC[C@H](N3CCCC3)[C@H]21` (single isomer, unassigned) [Example 5A24A]: in experiment [1], the EC50 turned out to be 384 nM and the Emax was 115%. For the same molecule, in experiment [2] (setting [4]), the Emax at 10 µM amounted to 0%. Besides, the IC50 in experiment [3] (setting [5]) was 463 nM.
Regarding `O=C(Cc1ccc(Cl)c(Cl)c1)N1CCN(Cc2ccccc2)[C@H]2COC[C@@H](N3CCCC3)[C@@H]21` (single isomer, unassigned) [Example 5A53B], in experiment [1], the EC50 is 4.8 nM and the Emax is 58%. Besides, the Emax at 10 µM in experiment [2] (setting [4]) was 80%. Besides, the IC50 in experiment [3] was 44 nM.
On to `O=C(Cc1ccc(Cl)cc1)N1CCN[C@@H]2COC[C@H](N3CCCC3)[C@H]21` (racemic) [Example 5A66], for which, in experiment [1], the concentration giving a half-maximal response (EC50) was 566 nM and the Emax amounted to 140%. Further, the Emax at 10 µM in experiment [2] (setting [4]) turned out to be 20%. In addition, the IC50 in experiment [3] (setting [5]) worked out at 456 nM.
Turning to `O=C(Cc1ccc(Cl)c(F)c1)N1CCN[C@@H]2COC[C@H](N3CCCC3)[C@H]21` (racemic) [Example 5A65], in experiment [1] (20 minutes at 30° C., read-out: GTPγS stimulation EC50), the EC50 amounted to 136 nM. In addition, the Emax in experiment [1] turned out to be 121%. Also, the Emax at 10 µM in experiment [2] (setting [4]) came out at 20%. For the same molecule, the IC50 in experiment [3] came to 68 nM.
On to `Cc1ccc(CC(=O)N2CCN[C@@H]3COC[C@H](N4CCCC4)[C@H]32)cc1C` (racemic) [Example 5A40], for which, in experiment [1], the EC50 stood at 1700 nM and the Emax amounted to 111%. Besides, the “β-arrestin coupling EC50” value in experiment [2] (90 minutes at 37° C., No stim = no stimulation at highest dose tested, 10,000 nM) is on record as “No stim”. Besides, the “β-arrestin coupling % efficacy” value in experiment [2] (maximal, normalized to U69,593, No stim = no stimulation at highest dose tested, 10,000 nM) is listed as “No stim”. For the same molecule, the IC50 in experiment [3] (setting [5]) is 719 nM.
Consider `CCCN1CCN(C(=O)Cc2ccc(Cl)c(Cl)c2)[C@H]2[C@H]1COC[C@@H]2N1CCCC1` (racemic) [Example 5A72], for which, in experiment [1], the EC50 stood at 12 nM and the Emax is 111%. In addition, the Emax at 10 µM in experiment [2] (setting [4]) came to 50%. Also, the IC50 in experiment [3] amounted to 26 nM.
